SMILES strings stand for the structures.

A short description of data set [1]: residual activity / half life of coelenterazine in solutions with or without antioxidant. As to conditions: 10 μM coelenterazine, 0.1M Tris-HCl pH 7.4/0.3 M Sodium ascorbate vs NaCl, Na2SO3, Thiourea solutions. In kind it is physicochemical. As to the method: The following four solutions were prepared, coelenterazine was dissolved at a final concentration of 10 μM, and the residual activity of coelenterazine was examined to determine a half life. In FIG. 7, the half life is shown in the solution of (1) 0.1M Tris-HCl pH 7.4/0.3 M NaCl, (2) 0.1M Tris-HCl pH 7.4/0.3 M Sodium ascorbate, (3) 0.1M Tris-HCl pH 7.4/0.2 M Na2SO3 or (4) 0.1M Tris-HCl pH 7.4/0.2 M Thiourea. […] It is desirable to add sodium ascorbate in the dual reporter assay.

Data set [2] can be described thus: self-luminescence activity of coelenterazine in 10% FBS solution. In kind it is physicochemical. To be noted: 10 μM or 100 μM coelenterazine, 10% FBS medium, with sodium ascorbate salt solution. Here is the method: The following two solutions were prepared, coelenterazine was dissolved at a final concentration of 10 μM or 100 μM, the solution was mixed with the medium for animal cells (solution containing 10% FBS), and the luminescence for 10 seconds was measured as the background. […] The luminescence activity (RLU: relative light unit) was measured, the ratio of its actually measured value to the self-luminescence was calculated and correctively shown in FIG. 8.

The test system of the next data set is copepod luciferase. Nature of the data set: ratio of luminescence to self-luminescence by copepod luciferase. As to conditions: 10 μM or 100 μM coelenterazine, copepod luciferase medium with 10% FBS, with sodium ascorbate salt solution. In kind it is biochemical. Here is the method:
Using the medium (containing 10% FBS) of copepod luciferase secreted from the animal cells, the coelenterazine solution prepared in Example 8 was dissolved at a final concentration of 10 μM or 100 μM, and the resulting solution was mixed with the medium (containing 10% FBS) for the animal cells at 1:1 (volume ratio), and the luminescence for 10 seconds was measured as the background activity. At that time, a reaction solution was 0.1M Tris-HCl pH 7.4/0.3 M, and the effect with or without the addition of 0.3 M […] was examined. The luminescence activity was measured, the ratio of the actually measured value to the self-luminescence (signal to background) was calculated, and collectively shown in FIG. 9. […] This way, the antioxidant has almost no effect on the oxidation reaction by luciferase and could reduce only the background.

Consider `Oc1ccc(Cc2nc3c(Cc4ccccc4)nc(-c4ccc(O)cc4)cn3c2O)cc1` [coelenterazine], for which, in data set [1], the half life result is reported as “widely prolonged”. Moreover, in data set [2], the “self-luminescence (background, RLU)” value is reported as “reduction of the self-luminescence”. Further, in the data set with copepod luciferase, the “ratio of the luminescence to the self-luminescence (signal to background)” value is “at least two times or more”.

Values taken from patent publication US8367357B2, “Two secretory luciferases” (National Institute of Advanced Industrial Science and …, priority 2006, dated 2013).
